Source: patent US8563717B2, “Adenine derivatives” (GlaxoSmithKline LLC, priority 2008, dated 2013)
pIC50: −log10 of the molar value.

How the values were obtained:
Assay type in all cases: cell-based
[1] = tested on: Interferon-α; test: Induction of Interferon-α using cryopreserved human PBMCs; conditions: PBMC, 24 h incubation, normalised to 1 uM resiquimod, read-out: mean pEC50 for induction of IFN-α (converted)
How it was run: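 Cryopreserved healthy-donor PBMCs at 1×10^6 cells/ml in RPMI/10% FCS with 1000 units/ml IFN-gamma, exposed 24 h at 37 °C to 11-point two-fold compound dilutions. Supernatant IFN-α quantified by MSD electrochemiluminescence immunoassay; pEC50 from 4-parameter fit, normalised to 1 uM resiquimod and DMSO.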

[2] = tested on: Interferon-α; test: Induction of Interferon-α using fresh human PBMCs; conditions: PBMC, 24 hr incubation, relative to 2 μM resiquimod control, read-out: mean pEC50 for induction of IFN-α (converted)
Procedure: (§1) Assay for the Induction of Interferon-α and TNF-α Using Fresh Human Peripheral Blood Mononuclear Cells (PBMCs)
(§2) Compounds were dissolved and serially diluted in DMSO to give 100× the required concentration range using a Biomek 2000. 1 ul of test compound was transferred into 96-well tissue culture plates using a Biomek FX. Each compound was assayed in duplicate for each donor. Each plate contained a dilution series of the TLR7/8 agonist resiquimod as standard and Column 11 contained 1 μl of 200 μM resiquimod (giving a 2 μM final concentration, used to define the approximate maximal response to resiquimod).
(§3) Blood samples from two human donors were collected into sodium heparin (10 U/ml). 25 ml volumes of whole blood were overlaid onto 15 mls Histopaque in Leucosep tubes which were centrifuged at 800 g for 20 min and the band at the plasma/histopaque interface carefully removed. The collected cells were centrifuged at 2500 rpm for 10 min. and the pellet resuspended in 10 ml of media (RPMI 1640 (Low endotoxin) supplemented with 10% v/v foetal calf serum (FCS, low endotoxin) 100 U/ml penicillin G, 100 μg/ml streptomycin, 10 mM L-glutamine and 1× non-essential amino acids). A 1:20 dilution of the cells was prepared using trypan blue & the cells counted using a haemocytometer. The PBMCs were diluted to give a final concentration of 2×10^6/ml and 100 ul of this cells suspension was added to wells containing 1 μl of diluted test compound.
(§4) The cell preparations were incubated for 24 hr. (37° C., 95% air, 5% CO2) after which a sample of the supernatant was removed using the Biomek FX and assayed for both IFN-α and TNF-α using the MSD (Mesoscale Discovery) electrochemiluminescence assay platform. The IFN-α assay was carried out similarly to that described above. The TNF-α assay was carried out as per kit instructions (Cat No K111BHB).
(§5) Cytokine released was expressed as a percentage of the 2 μM resiquimod control (column 11). This percentage was plotted against compound concentration and the pEC50 for the response determined by non-linear least squares curve fitting. For the IFN-α responses generally a 4 parameter logistic model was selected. For the TNF responses where a clear maximum response was obtained (i.e. a well defined plateau in the response was observed) then a 4 parameter model was generally used. If the upper asymptote of the curve wasn't well defined then the curve fitting was generally constrained to a maximal response of 100% (i.e., to the response to 2 μM resiquimod) or to the response of the highest concentration tested if this was greater than the resiquimod response. Some curves were bell shaped for one or both cytokines and the cytokine data on the down slope of the bell shaped response (i.e. concentrations above those giving the maximal response) were generally excluded from the fit, usually with the exception of the concentration immediately above the peak response. Curve fitting thus concentrated on the up slope of the dose response curve.

[3] = tested on: TNF-α; test: Induction of TNF-α using fresh human PBMCs; conditions: PBMC, 24 hr incubation, relative to 2 μM resiquimod control, read-out: mean pEC50 for induction of TNF-α (converted)
Procedure: as §1, §2, §3, §4, §5

[4] = tested on: IL-5; test: Allergen-driven cytokine assay using fresh human PBMCs from atopic volunteers (IL-5); conditions: PBMC, PBMCs from at least two allergic donors, 10 μg/ml Timothy grass antigen, compared to the allergen control, read-out: concentration at which ≧50% reduction of IL-5 production observed
Procedure: (§6) Allergen-Driven Cytokine Assay Using Fresh Human Peripheral Blood Mononuclear Cells (PBMCs) from Atopic Volunteers
(§7) An assay based on co-culture of atopic human donor derived peripheral blood mononuclear cells (PBMCs) with allergen and test compounds was developed. After 5-6 days culture, cell supernatants were assayed for a range of cytokines.
(§8) Compounds were dissolved in DMSO, then serially diluted in growth medium (RPMI 1640 medium supplemented with 100 U/ml penicillin G, 100 μg/ml streptomycin, 10 mM L-glutamine) to give 4× the required concentration range in the presence of 0.04% DMSO. Each compound was assayed in triplicate at all concentrations.
(§9) Defibrinated human blood from volunteers known to be allergic to Timothy grass was centrifuged at 2500 rpm for 15 minutes. The upper layer of serum was collected and heat-inactivated at 56° C. for 30 minutes (HI-autologous serum). The lower layer of cells was resuspended in 50 ml PBS (+Ca +Mg), 25 ml diluted blood were overlaid onto 20 ml Lymphoprep in 50 ml tubes then centrifuged at 2500 rpm for 20 minutes at RT. The band at the serum/Lymphoprep interface was carefully removed. The collected cells were washed with PBS and re-suspended at 4×10^6/ml in growth medium with HI-autologous serum. PBMCs were seeded at 0.4×10^6 cells/well in flat-bottomed 96 well plates in the presence of 10 μg/ml Timothy grass antigen (Alk Abello) and test compounds at appropriate concentrations in a total volume of 200 ul.
(§10) Plates were incubated at 37° C. in 5% CO2 for up to 6 days. The cell medium from each well was harvested and stored at −20° C. prior to analysis. Cytokines and chemokines in supernatants were detected using Meso Scale Discovery 10 spot plates for Human TH1/Th2 cytokines.

[5] = tested on: IL-13; test: Allergen-driven cytokine assay using fresh human PBMCs from atopic volunteers (IL-13); conditions: PBMC, PBMCs from at least two allergic donors, 10 μg/ml Timothy grass antigen, compared to the allergen control, read-out: concentration at which ≧50% reduction of IL-13 production observed
Procedure: as §6, §7, §8, §9, §10

EC50 [2]	EC50 [3]	pIC50 [4]	pIC50 [5]	SMILES	EC50 [1]
< 10 nM	> 1000 nM	≥ 8.10	≥ 7.40	CCCCOc1nc(N)c2[nH]c(=O)n(CCCCC3CCN(CC)CC3)c2n1 [Example 10, 6-Amino-2-(butyloxy)-9-[4-(1-ethyl-4-piperidinyl)butyl]-7,9-dihydro-8H-purin-8-one]	< 1580 nM
< 10 nM	> 1000 nM	≥ 8.10	≥ 7.40	CCC[C@H](C)Oc1nc(N)c2[nH]c(=O)n(CCC3CCN(C(C)C)CC3)c2n1 [Example 92, 6-Amino-2-{[(1S)-1-methylbutyl]oxy}-9-{2-[1-(1-methylethyl)-4-piperidinyl]ethyl}-7,9-dihydro-8H-purin-8-one]	< 1580 nM
< 100 nM	> 1000 nM	≥ 8.10	≥ 7.40	CCCCOc1nc(N)c2[nH]c(=O)n(CCC3CCN(CC)CC3)c2n1 [Example 8]	< 1580 nM
< 10 nM	> 1000 nM	≥ 8.10	≥ 7.40	CCCCOc1nc(N)c2[nH]c(=O)n(CCCC3CCN(CC)CC3)c2n1 [Example 9]	< 1580 nM
